Tests used:
[1] = test system: orthotopic tongue tumors (FaDutdTomato); assay: topical application of PARPi-fl on orthotopic tongue tumors, confocal microscopy; format: in vivo, mice; conditions: one minute application
Protocol: For topical application, the tongues were dipped into a well of a 96-well plate filled with the respective incubation solution. […] This was followed by cleaning of the tongue with an alcohol pad to remove residual unbound compound. The animals were imaged in the IVIS Spectrum before and after PARPi-fl application using the appropriate filter sets for detection of PARPi-fl and the tdTomato fluorescent protein. Spectral unmixing was used to separate the signals for tdTomato, PARPi-fl and autofluorescence. The tdTomato fluorescent protein allows in vivo localization of the tumor. For comparability, all images were scaled to the same maximum radiant efficiency. Imaging was repeated with sections of the excised tongues after cryofixation. […] Adjacent sections were H&E stained for morphological evaluation.

FaDu tumors = assay: fluorescence endomicroscopy of excised FaDu tumors and control tissues; format: in vivo, mice; conditions: 90 minutes after PARPi-fl injection
Protocol: FaDu xenografts were imaged with a fluorescence endoscope that is available for both clinical and preclinical imaging (Cellvizio, Mauna Kea Technologies, Paris, France). It provides cellular to subcellular resolution and has a flexible confocal microprobe that enables versatile imaging. […] The microprobe was slowly moved over the tumor, tongue, or muscle, while a real-time video was recorded using a 488 nm excitation beam. The videos were converted to grayscale and the intensity was measured in 10 frames per video using ImageJ 1.49e Software. Topical application of PARPi-fl

U87 cells = assay: MTT assay; format: cell-based; conditions: U87 glioblastoma cells
tumor cells = assay: in vivo confocal imaging of PARPi-fl in tumor cells (cell population drug kinetics)
From the text: Concentration rapidly increases after a bolus dose followed by a slow decay (top).

[2] = clearance from circulation and metabolic stability after IV injection; format: in vivo, mice
U251 cells = assay: MTT assay; format: cell-based; conditions: U251 glioblastoma cells
[3] = toxicity after local administration on the oral mucosa; format: in vivo; conditions: mice
Protocol: […]. Mice received blood draws after 24 h and 48 h post administration, and were then sacrificed to receive a full necropsy.

PARP1 = target: T1, PARP1 (Homo sapiens, UniProt P09874); assay: correlation of PARPi-fl fluorescence with PARP1 antibody staining in FaDu tumor sections; format: in vivo; conditions: nuclear area, 222 pairs
T1 construct: endogenous in cells; host or cells: FaDu (human hypopharyngeal SCC, ATCC) subcutaneous xenografts in athymic nude mice
Protocol: 222 xy pairs pooled from n=3 tumor sections.
Next, 10 μm cryosections were fixed in 4% paraformaldehyde for 8 minutes, followed by blocking with 3% (v/v) goat serum (Sigma-Aldrich, St. Louis, Mo.) in PBS. Antibodies were diluted in 1% (w/v) BSA and 0.3% (v/v) Triton X-100 in PBS. Anti-PARP1 primary antibody (sc-7150, Santa Cruz Biotechnology, Santa Cruz, Calif.) was incubated overnight at 4° C. (1 μg/ml), followed by three 10-minute washes with PBS and incubation with secondary AlexaFluor® 680 goat anti-rabbit antibody (A21076, Molecular Probes, Eugene, Oreg.) for 1 hour at 4° C. (2 μg/ml). After another 5-minute PBS wash, sections were mounted with Mowiol® (Sigma-Aldrich, St. Louis, Mo.) containing Hoechst 33342 DNA Stain (Sigma-Aldrich, St. Louis, Mo.). […] Incubating sections with either a nonspecific rabbit IgG or PBS instead of primary antibody confirmed binding specificity.

FaDu cells = assay: flow cytometry of PARPi-fl uptake with and without irradiation; format: cell-based, human
Protocol: (§1) First, cells were irradiated with 0, 2, 4 and 10 Gy in 25 cm^2 culture flasks using the J.L. Shepherd Cesium irradiator (J.L. Shepherd, San Fernando, Calif.) at a dose rate of 174 cGy/min. […] Following a wash with PBS, cells were trypsinized, counted, and portions of 0.5×10^6 cells of the single cell suspension were aliquoted into 1.5 ml Eppendorf tubes (Eppendorf, Hamburg, Germany). For each time point and irradiation dose, samples were either left unstained, were stained with PARPi-fl or olaparib/PARPi-fl. […] For staining, cells were washed with 1 ml FACS buffer (1% BSA (w/v) in PBS). […] Next, cells were centrifuged, the supernatant was aspirated and cells were re-suspended in 0.5 ml FACS buffer and transferred to 5 ml round bottom flow cytometry tubes (BD Biosciences, Bedford, Mass.) through a 40 μm strainer to remove doublets and left on ice until measurement in the flow cytometer (LSR® II, BD Biosciences, Bedford, Mass.). For each measurement, 10,000 events were counted. Raw data were processed in FlowJo software in order to calculate the changes in PARPi-fl uptake after irradiation. Cell clumps and debris were eliminated using the corresponding gates (forward and side scatter) for the unstained cell population. The gates were applied to all stained samples. PARPi-fl fluorescence was imaged in the FITC channel against side scatter (area).

Ca127 cells = assay: as above; format: cell-based, human
Protocol: as §1

[4] = pharmacokinetic profile of ^18F-PARPi in a tumor-free mouse; format: in vivo
Protocol: Bone uptake amounts for 6% ID/g. While low, imaging in larger mammals typically reduces bone-uptake further due to slower metabolic degradation.
The blood half-life, serum stability, and metabolic stability of ^18F-PARPi was determined. Blood half-lives were determined after the injection of ˜15 μCi of the ^18F-labeled species into C57BL/6J (B6) mice and blood (5-10 μL) drawn at different time points via saphenous vein bleeds. FIGS. 13A-13B show an image acquired at 60 minutes. The drawn blood was both counted as well as analyzed using a HPLC-MS equipped with both a fluorescence detector as well as a parallel radiodetector. Organs were homogenized. Next, the bimodal imaging agent was extracted and radioactive/fluorescent metabolites were analyzed using HPLC. All major organs were weighed, and their […] activity was measured using a scintillation counter. The injected dose per gram tissue (% ID/g) was determined.

subcutaneous FaDu tumors = assay: ex vivo epifluorescence imaging of PARPi-fl uptake, subcutaneous FaDu xenografts and normal tissues
Protocol: Animals were sacrificed 90 minutes post-injection and tumors, tongues, trachea, and muscle were excised and imaged using epifluorescence imaging (IVIS Spectrum, PerkinElmer, Waltham, Mass.). […] This measure carries the unit [p/s/cm^2/sr]/[μW/cm^2] and is defined as the number of photons per second leaving a square centimeter of tissue and radiating into a solid angle of one steradian (sr).

[5] = cited from earlier work
[6] = oral mucosa, 20 μl of 400 μM solution
[7] = topical oral mucosa, 29 nmol in 50 μL, 10 min
[8] = 48 hours after 10 Gy irradiation
[9] = non-irradiated, olaparib co-incubated with PARPi-fl (50-fold excess)

T1 sequence (P09874 whole entry, species assumed): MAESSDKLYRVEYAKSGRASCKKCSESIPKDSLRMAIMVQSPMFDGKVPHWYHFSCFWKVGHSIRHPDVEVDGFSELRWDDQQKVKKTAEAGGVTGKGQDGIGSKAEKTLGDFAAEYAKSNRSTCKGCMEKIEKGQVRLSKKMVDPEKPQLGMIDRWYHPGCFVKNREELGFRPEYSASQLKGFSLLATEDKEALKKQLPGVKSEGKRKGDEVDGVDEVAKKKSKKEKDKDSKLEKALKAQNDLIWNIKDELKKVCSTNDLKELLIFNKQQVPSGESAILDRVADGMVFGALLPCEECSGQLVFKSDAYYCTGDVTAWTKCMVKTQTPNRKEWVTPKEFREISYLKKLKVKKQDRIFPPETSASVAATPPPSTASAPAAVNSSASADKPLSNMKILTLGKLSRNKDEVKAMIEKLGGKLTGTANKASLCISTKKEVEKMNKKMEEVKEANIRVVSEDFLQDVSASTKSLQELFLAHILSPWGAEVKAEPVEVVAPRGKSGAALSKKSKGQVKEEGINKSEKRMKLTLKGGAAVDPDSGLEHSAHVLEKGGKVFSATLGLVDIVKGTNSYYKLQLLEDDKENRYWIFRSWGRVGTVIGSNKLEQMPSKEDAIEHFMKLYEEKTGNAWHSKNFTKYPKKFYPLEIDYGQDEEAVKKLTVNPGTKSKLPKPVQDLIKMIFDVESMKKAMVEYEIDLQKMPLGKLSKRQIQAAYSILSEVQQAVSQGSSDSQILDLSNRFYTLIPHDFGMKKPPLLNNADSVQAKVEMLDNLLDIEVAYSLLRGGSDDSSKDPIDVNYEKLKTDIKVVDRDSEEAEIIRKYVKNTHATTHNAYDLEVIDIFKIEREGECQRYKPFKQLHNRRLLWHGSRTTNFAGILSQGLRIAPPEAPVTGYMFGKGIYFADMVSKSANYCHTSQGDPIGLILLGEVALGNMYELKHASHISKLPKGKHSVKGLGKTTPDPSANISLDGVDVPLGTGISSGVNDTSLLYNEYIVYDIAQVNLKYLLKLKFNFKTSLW

Cc1cc(C)n2c1C=C1C=CC(CCC(=O)N3CCN(C(=O)c4cc(Cc5n[nH]c(=O)c6ccccc56)ccc4F)CC3)=[N+]1[B-]2(F)F [PARPi-fl]
penetration depth into tumor tissue [1]: up to 300 μm | average signal intensity (FaDu tumors; FaDu tumors): 35.4±8.6 AU | average signal intensity (FaDu tumors; thigh muscle): 15.1±2.4 AU | average signal intensity (FaDu tumors; tongue): 18.5±6.9 AU | IC50 (U87 cells): 24 µM | average cellular drug concentration (tumor cells; tumor cells in vivo after bolus dose, FIG. 9B): 1.2 µM | cells targeted within tumor tissue (tumor cells; uptake within tumor tissue): greater than 99.8% | concentration in targeted tumor cells (tumor cells; uptake within tumor tissue): 1900 ± 500 nM | metabolites ([2]; mice, 30 min post injection): less than 50% | β half-life ([2]; mice, IV injection, clearance from circulation): 1.47 h | time of peak uptake in subcutaneous tumors ([2]; post injection): 30 min | IC50 (U251 cells): 5.5 µM | tissue permeability (tissue permeability): 4.7±2.5 μm/s | changes in clinical chemical and hematologic parameters [3, 6]: no changes | local irritation [3, 6]: no local irritation | ALP [3, 7]: 90 ± 18 IU/L | ALT (SGPT) [3, 7]: 31 ± 6 IU/L | AST (SGOT) [3, 7]: 67 ± 4 IU/L | Albumin [3, 7]: 2.7 ± 0.2 g/dL | BA % [3, 7]: 0.2 ± 0.3% | BASOPHILS [3, 7]: 0.01 ± 0.02 K/μL | BUN [3, 7]: 28 ± 2 mg/dL | Calcium [3, 7]: 9.6 ± 0.2 mg/dL | Chloride [3, 7]: 114 ± 1 mEq/L | Cholesterol [3, 7]: 86 ± 8 mg/dL | Creatinine [3, 7]: 0.24 ± 0.01 mg/dL | EO % [3, 7]: 5.5 ± 1.0% | EOSINOPHIL [3, 7]: 0.64 ± 0.55 K/μL | GGT [3, 7]: 0 IU/L | Globulin [3, 7]: 2.3 ± 0.7 g/dL | Glucose [3, 7]: 229 ± 54 mg/dL | HB [3, 7]: 15.1 ± 0.9 g/dL | HCT [3, 7]: 50.4 ± 2.9% | LY % [3, 7]: 57.0 ± 10.9% | LYMPHOCYT [3, 7]: 3.34 ± 1.07 K/μL | MCH [3, 7]: 14.7 ± 0.4 pg | MCHC [3, 7]: 30.0 ± 0.1 g/dL | MCV [3, 7]: 49.3 ± 1.2 fL | MO % [3, 7]: 1.9 ± 0.8% | MONOCYTE [3, 7]: 0.10 ± 0.04 K/μL | MPV [3, 7]: 6.1 ± 0.2 fL | NE % [3, 7]: 29.5 ± 4.0% | NEUTROPHI [3, 7]: 1.69 ± 0.04 K/μL | PLT [3, 7]: 1077 ± 171 K/μL | Phosphorus [3, 7]: 6 ± 1 mg/dL | Potassium [3, 7]: 3.8 ± 0.7 mEq/L | RBC [3, 7]: 10.24 ± 0.62 M/μL | RDW [3, 7]: 23.4 ± 0.6% | Sodium [3, 7]: 151 ± 3 mEq/L | Total Bilirubin [3, 7]: 0.1 ± 0.0 mg/dL | Total Protein [3, 7]: 4.9 ± 0.8 g/dL | WBC [3, 7]: 5.78 ± 0.90 K/μL | co-localization with PARP1 antibody staining, Rcoloc. (PARP1): 0.986 | PARPi-fl signal compared to non-irradiated cells (FaDu cells; [8]): 145.4±7.3% | PARPi-fl signal compared to non-irradiated cells (Ca127 cells; [8]): 136.0±16.6%

CC1=CC(C)=[N+]2C1=Cc1ccc(CCC(=O)N3CCN(C(=O)c4cc(Cc5n[nH]c(=O)c6ccccc56)ccc4F)CC3)n1[B-]2(F)[18F] (stereo not shown) [^18F-PARPi]
bone uptake [4]: 6 % ID/g

O=C(c1cc(Cc2n[nH]c(=O)c3ccccc23)ccc1F)N1CCN(C(=O)C2CC2)CC1 [olaparib, 4-[(3-[(4-cyclopropyl-carbonyl)piperazin-4-yl]carbonyl)-4-fluorophenyl]methyl (2H)phthalazin-1-one]
IC50 (U87 cells; Homo sapiens, U-87 MG): 28 µM | IC50 (U251 cells; Homo sapiens, U-251): 8 µM | inhibition of PARPi-fl tumor uptake by xenografts (subcutaneous FaDu tumors; coinjection with PARPi-fl): almost completely inhibited | reduction of the fluorescent signal of the tumor (subcutaneous FaDu tumors; olaparib injected before PARPi-fl (50-fold excess, 30 min prior)): 60% | effect on PARPi-fl uptake (FaDu cells; [9]): almost completely suppressed | effect on PARPi-fl uptake (Ca127 cells; [9]): almost completely suppressed | excreted ([5]; ^14C-labeled olaparib, within 7 days): More than 86% | terminal half-life ([5]; after a 400 mg dose): 11.9 h | tolerability ([5]; approved dose and schedule, 400 mg orally twice daily): well tolerated | apparent volume of distribution ([5]; oral administration): more than 150 L | time of peak plasma concentrations after dosing ([5]; oral administration): 1 to 3 h

Source: US20230065522A1 (Memorial Sloan Kettering Cancer Center, priority 2015, published 2023)
